{"source": "ChEMBL document CHEMBL4396888", "about": "“Design and Synthesis of Potent, Selective Inhibitors of Protein Arginine Methyltransferase 4 against Acute Myeloid Leukemia” (J Med Chem, 2019)", "key": {"[1]": {"molecular_target": "Histone-lysine N-methyltransferase EHMT2 (Homo sapiens) (UniProt Q96KQ7)", "sequence (Q96KQ7 whole entry)": "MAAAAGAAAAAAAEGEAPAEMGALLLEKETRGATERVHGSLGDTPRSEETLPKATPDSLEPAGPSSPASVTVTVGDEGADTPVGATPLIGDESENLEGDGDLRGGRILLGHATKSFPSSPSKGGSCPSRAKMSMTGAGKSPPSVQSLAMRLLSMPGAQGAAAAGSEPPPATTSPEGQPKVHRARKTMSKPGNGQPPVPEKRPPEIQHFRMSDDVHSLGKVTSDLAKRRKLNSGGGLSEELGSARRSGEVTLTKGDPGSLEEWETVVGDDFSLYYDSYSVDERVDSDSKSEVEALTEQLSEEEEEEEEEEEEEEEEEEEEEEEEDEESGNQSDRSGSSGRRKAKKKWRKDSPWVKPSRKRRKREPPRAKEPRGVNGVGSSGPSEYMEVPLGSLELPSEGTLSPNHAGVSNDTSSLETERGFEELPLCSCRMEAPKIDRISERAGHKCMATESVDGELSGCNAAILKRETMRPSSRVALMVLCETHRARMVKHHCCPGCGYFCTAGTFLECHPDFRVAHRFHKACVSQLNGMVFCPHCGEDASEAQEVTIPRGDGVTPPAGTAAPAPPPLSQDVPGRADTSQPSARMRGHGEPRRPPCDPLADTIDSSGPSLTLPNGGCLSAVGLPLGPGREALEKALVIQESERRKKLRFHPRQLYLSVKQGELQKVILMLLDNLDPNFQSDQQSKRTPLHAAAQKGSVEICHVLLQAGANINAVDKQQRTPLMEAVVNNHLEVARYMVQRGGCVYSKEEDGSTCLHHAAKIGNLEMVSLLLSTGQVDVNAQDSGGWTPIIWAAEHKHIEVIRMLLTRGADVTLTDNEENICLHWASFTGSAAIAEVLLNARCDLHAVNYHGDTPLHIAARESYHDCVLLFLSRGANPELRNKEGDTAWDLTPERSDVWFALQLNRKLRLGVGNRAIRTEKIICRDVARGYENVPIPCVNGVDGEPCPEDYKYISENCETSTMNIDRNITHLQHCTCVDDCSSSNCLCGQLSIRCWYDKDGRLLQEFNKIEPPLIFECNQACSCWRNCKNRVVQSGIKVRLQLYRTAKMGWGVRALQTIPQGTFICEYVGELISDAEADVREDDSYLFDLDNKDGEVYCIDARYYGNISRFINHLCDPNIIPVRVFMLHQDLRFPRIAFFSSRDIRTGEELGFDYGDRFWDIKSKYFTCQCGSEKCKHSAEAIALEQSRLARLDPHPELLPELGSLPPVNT", "assay": "Inhibition of G9a (unknown origin) up to 50 uM preincubated for 15 mins followed by substrate addition and measured after 60 mins by AlphaLisa assay"}, "[2]": {"assay": "Half life in ICR mouse at 3 mg/kg, iv by mass spectrometric analysis", "type": "ADME, organism-based", "conditions": "in vivo"}, "Mus musculus [3]": {"system": "Mus musculus", "assay": "In vivo inhibition of PRMT4 in nude BALB/c mouse xenografted with human MOLM13 cells assessed as reduction in PABP1 dimethylation at 100 mg/kg, po administered daily for 18 days measured 6 hrs post-last dose by Western blot analysis", "type": "functional, organism-based"}, "[4]": {"assay": "Clearance in ICR mouse at 3 mg/kg, iv by mass spectrometric analysis", "type": "ADME, organism-based", "conditions": "in vivo"}, "[5]": {"assay": "Selectivity ratio of IC50 for antiproliferative activity against human MOLM13 cells to IC50 for inhibition of PRMT4 in human MOLM13 cells assessed as reduction in BAF155 dimethylation"}, "[6]": {"assay": "Tmax in ICR mouse at 10 mg/kg, po administered via gavage by mass spectrometric analysis", "type": "ADME, organism-based", "conditions": "in vivo"}, "[7]": {"molecular_target": "Histone-lysine N-methyltransferase SMYD3 (Homo sapiens) (UniProt Q9H7B4)", "sequence (Q9H7B4 whole entry)": "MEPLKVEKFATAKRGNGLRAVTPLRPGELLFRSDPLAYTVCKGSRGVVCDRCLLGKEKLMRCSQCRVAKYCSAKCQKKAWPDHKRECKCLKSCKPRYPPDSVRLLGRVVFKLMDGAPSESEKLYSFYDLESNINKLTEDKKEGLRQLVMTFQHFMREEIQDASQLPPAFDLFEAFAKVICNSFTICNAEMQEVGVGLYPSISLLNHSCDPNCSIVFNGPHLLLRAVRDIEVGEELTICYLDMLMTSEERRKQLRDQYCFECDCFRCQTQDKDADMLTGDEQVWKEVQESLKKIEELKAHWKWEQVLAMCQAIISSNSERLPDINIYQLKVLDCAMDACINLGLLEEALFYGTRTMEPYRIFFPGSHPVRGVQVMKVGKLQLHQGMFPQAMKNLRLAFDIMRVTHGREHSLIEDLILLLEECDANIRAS", "assay": "Inhibition of SMYD3 (unknown origin) up to 50 uM preincubated for 15 mins followed by substrate addition and measured after 60 mins by AlphaLisa assay"}, "Mus musculus [8]": {"system": "Mus musculus", "assay": "In vivo inhibition of PRMT4 in nude BALB/c mouse xenografted with human MOLM13 cells assessed as reduction in asymmetric dimethyl arginine level at 100 mg/kg, po administered daily for 18 days measured 6 hrs post-last dose by Western blot analysis", "type": "functional, organism-based"}, "MOLT-4": {"system": "MOLT-4", "assay": "Antiproliferative activity against human MOLT4 cells measured after 6 days by CCK8/SRB assay", "type": "functional, cell-based"}, "[9]": {"assay": "AUC (0 to last) in ICR mouse at 10 mg/kg, po administered via gavage by mass spectrometric analysis", "type": "ADME, organism-based", "set-up": "dose 10 mg/kg, route oral, time 0 - last", "conditions": "in vivo"}, "[10]": {"assay": "AUC (0 to infinity) in ICR mouse at 10 mg/kg, po administered via gavage by mass spectrometric analysis", "type": "ADME, organism-based", "set-up": "dose 10 mg/kg, time infinity, route oral", "conditions": "in vivo"}, "MOLM-13 [11]": {"system": "MOLM-13", "assay": "Cell cycle arrest in human MOLM13 cells assessed as increase in accumulation at G0/G1-phase measured after 72 hrs by propidium iodide staining-based flow cytometry", "type": "functional"}, "HEL": {"system": "HEL", "assay": "Antiproliferative activity against HEL cells measured after 6 days by CCK8/SRB assay", "type": "functional, cell-based", "conditions": "Homo sapiens"}, "[12]": {"molecular_target": "T1, Histone-arginine methyltransferase CARM1 (Homo sapiens, UniProt Q86X55)", "T1 sequence (Q86X55 whole entry)": "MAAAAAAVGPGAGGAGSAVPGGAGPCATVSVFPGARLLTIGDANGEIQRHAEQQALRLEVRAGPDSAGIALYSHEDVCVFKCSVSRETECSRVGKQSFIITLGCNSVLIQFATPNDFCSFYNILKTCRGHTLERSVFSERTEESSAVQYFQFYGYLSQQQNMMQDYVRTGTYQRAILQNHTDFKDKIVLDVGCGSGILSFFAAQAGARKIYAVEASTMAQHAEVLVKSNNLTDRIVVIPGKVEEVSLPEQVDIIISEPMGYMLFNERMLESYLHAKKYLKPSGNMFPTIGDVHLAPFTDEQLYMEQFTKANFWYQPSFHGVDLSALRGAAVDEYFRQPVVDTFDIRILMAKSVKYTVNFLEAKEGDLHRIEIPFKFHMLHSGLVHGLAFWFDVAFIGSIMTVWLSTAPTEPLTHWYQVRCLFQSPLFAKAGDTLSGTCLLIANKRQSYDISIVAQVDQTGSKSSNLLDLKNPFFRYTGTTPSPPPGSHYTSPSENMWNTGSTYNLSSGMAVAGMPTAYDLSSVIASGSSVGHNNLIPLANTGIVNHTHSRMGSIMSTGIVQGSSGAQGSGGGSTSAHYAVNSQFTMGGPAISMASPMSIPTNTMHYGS", "assay": "Inhibition of PRMT4 in human MOLM13 cells assessed as reduction in PABP1 dimethylation measured after 96 hrs by Western blotting analysis", "type": "cell-based"}, "[13]": {"assay": "Cmax in ICR mouse at 10 mg/kg, po administered via gavage by mass spectrometric analysis", "type": "ADME, organism-based", "set-up": "dose 10 mg/kg, route oral", "conditions": "in vivo"}, "MOLM-13 [14]": {"system": "MOLM-13", "assay": "Induction of apoptosis in human MOLM13 cells assessed as total apoptotic cells at 12 uM measured after 96 hrs by Annexin V-FITC/propidium iodide staining-based flow cytometry relative to control", "type": "functional"}, "MOLM-13 [15]": {"system": "MOLM-13", "assay": "Cell cycle arrest in human MOLM13 cells assessed as decrease in accumulation at S-phase measured after 72 hrs by propidium iodide staining-based flow cytometry", "type": "functional"}, "[16]": {"assay": "Drug level in tumor of nude BALB/c mouse xenografted with human MOLM13 cells at 100 mg/kg, po administered daily for 18 days measured 6 hrs post-last dose by LC-MS/MS analysis", "type": "ADME, organism-based, Neoplasm", "conditions": "read-out: Drug uptake"}, "[17]": {"molecular_target": "Protein arginine N-methyltransferase 7 (Homo sapiens, UniProt Q9NVM4)", "sequence (Q9NVM4 whole entry)": "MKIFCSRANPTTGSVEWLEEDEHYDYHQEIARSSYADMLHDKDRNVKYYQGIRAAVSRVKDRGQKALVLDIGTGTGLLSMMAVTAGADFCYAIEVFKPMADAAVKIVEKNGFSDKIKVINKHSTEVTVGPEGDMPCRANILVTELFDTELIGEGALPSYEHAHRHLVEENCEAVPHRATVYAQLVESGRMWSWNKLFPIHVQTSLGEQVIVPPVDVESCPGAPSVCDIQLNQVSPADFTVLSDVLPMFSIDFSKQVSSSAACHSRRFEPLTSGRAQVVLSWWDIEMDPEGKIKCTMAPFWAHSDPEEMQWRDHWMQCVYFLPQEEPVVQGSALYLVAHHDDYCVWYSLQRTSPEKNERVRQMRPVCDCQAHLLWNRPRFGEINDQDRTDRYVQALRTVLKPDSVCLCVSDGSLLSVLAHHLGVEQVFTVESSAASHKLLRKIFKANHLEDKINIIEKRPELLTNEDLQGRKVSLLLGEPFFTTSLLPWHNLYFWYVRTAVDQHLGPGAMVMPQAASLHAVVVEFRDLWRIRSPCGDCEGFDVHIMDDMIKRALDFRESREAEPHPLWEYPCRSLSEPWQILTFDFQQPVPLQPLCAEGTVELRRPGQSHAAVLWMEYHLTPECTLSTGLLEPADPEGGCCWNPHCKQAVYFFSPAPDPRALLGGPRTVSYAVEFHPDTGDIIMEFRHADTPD", "assay": "Inhibition of recombinant full-length human PRMT7 expressed in Sf9 insect cells using Ac-KKDGKKRKRSRKESYK-biotin as substrate measured after 30 mins in presence of SAM by topcount scintillation counting method"}, "MOLM-13 [18]": {"system": "MOLM-13", "assay": "Antitumor activity against human MOLM13 cells xenografted in BALB/c nude mouse assessed as tumor growth inhibition at 100 mg/kg, po administered daily for 18 days measured 2 to 3 times a week by caliper method relative to control", "type": "functional", "conditions": "MOLM-13, po, 432 h, read-out: TGI"}, "MOLM-13 [19]": {"system": "MOLM-13", "assay": "Antiproliferative activity against human MOLM13 cells measured after 6 days by CCK8/SRB assay", "conditions": "MOLM-13, 144 h"}}, "note": "pIC50: −log10 of the molar value. Activity calls are given as the source filed them. The calls are words filed in the database; no cut-off is given here.", "data": [{"smiles": "CNC[C@@H](O)CN1CCc2c(cccc2OCc2ccc(-c3nccs3)cc2)C1", "values": [{"measurement": "inhibition", "setting": "[1]", "result": "inactive"}, {"measurement": "half-life", "setting": "[2]", "result": 12.1, "unit": "h"}, {"measurement": "inhibition", "setting": "Mus musculus [3]", "result": "Active"}, {"measurement": "clearance", "setting": "[4]", "result": 44.9, "unit": "mL/min/kg"}, {"measurement": "Ratio IC50", "setting": "[5]", "result": 10}, {"measurement": "Tmax", "setting": "[6]", "result": 8, "unit": "h"}, {"measurement": "inhibition", "setting": "[7]", "result": "inactive"}, {"measurement": "inhibition", "setting": "Mus musculus [8]", "result": "Active"}, {"measurement": "Activity", "setting": "MOLT-4", "result": "Dose-dependent effect"}, {"measurement": "AUC(0-t)", "setting": "[9]", "result": 1410, "unit": "ng·h/mL"}, {"measurement": "AUC(0-inf)", "setting": "[10]", "result": 3030, "unit": "ng·h/mL"}, {"measurement": "Activity", "setting": "MOLM-13 [11]", "result": "Dose-dependent effect"}, {"measurement": "Activity", "setting": "HEL", "result": "Dose-dependent effect"}, {"measurement": "pIC50", "setting": "[12]", "result": 6.26}, {"measurement": "Cmax", "setting": "[13]", "result": 75.4, "unit": "ng/mL"}, {"measurement": "Activity", "setting": "MOLM-13 [14]", "result": 96.4, "unit": "%"}, {"measurement": "Activity", "setting": "MOLM-13 [15]", "result": "Dose-dependent effect"}, {"measurement": "concentration at 6 h", "setting": "[16]", "result": 80700, "unit": "ng/g"}, {"measurement": "pIC50", "setting": "[17]", "result": "< 4.52"}, {"measurement": "inhibition in vivo at 100 mg/kg", "setting": "MOLM-13 [18]", "result": 53.5, "unit": "%"}, {"measurement": "pIC50", "setting": "MOLM-13 [19]", "result": 5.16}]}]}
